In this test the target is T1, sGC α1/β1 heterodimer (Homo sapiens, UniProt Q02108+Q02153).
T1 construct: expressed in transfected cells; host or cells: CHO-K1 (clone #7, CHO-K1/sGC)
T1 sequence (Q02108 1-690): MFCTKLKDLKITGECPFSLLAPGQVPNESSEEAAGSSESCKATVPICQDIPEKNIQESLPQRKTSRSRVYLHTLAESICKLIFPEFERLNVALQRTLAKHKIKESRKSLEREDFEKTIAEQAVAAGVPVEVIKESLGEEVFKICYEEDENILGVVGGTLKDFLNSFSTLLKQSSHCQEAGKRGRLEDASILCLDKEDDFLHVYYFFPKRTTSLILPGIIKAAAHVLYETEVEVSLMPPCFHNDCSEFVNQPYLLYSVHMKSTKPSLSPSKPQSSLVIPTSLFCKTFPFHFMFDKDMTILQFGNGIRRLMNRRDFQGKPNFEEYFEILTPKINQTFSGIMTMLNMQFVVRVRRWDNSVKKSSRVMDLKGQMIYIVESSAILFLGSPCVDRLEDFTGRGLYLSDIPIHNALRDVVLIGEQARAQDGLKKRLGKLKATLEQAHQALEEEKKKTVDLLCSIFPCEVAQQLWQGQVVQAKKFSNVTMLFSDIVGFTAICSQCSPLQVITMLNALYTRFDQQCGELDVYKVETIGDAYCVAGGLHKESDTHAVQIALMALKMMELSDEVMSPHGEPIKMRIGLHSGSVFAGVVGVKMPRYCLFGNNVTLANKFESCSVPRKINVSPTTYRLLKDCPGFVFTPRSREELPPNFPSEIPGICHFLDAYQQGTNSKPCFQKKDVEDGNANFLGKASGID
T1 sequence (Q02153 1-619): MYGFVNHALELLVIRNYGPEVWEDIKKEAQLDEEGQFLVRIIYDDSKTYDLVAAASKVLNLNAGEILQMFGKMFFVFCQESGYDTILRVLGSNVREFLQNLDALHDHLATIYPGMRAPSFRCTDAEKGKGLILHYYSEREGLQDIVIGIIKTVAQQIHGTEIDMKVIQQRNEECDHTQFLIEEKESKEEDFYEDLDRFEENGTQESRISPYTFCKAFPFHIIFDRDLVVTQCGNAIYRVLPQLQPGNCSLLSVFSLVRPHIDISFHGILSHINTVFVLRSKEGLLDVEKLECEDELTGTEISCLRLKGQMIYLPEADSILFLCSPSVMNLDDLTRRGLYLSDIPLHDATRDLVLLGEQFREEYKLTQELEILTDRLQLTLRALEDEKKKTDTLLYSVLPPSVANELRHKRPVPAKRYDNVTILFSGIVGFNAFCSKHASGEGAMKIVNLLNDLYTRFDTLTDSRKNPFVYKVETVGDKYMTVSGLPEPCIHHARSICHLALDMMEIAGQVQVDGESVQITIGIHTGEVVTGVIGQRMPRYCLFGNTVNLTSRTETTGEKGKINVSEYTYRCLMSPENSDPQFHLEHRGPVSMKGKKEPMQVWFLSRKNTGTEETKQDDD
Briefly: Cell-based sGC functional assay (CASA assay): cGMP generation in CHO-K1/sGC cells, HTRF detection. The settings on record: for EC50: inflection point (IP) of cGMP generation in CHO-K1/sGC cells, 4P fit, activity expressed as percentage of Compound A; for Emax: CHO-K1, percent activation relative to standard Compound A in CHO-K1/sGC cells, read-out: % Act. From the text: Biological Assay 1: Cell-Based sGC Functional Assay (CASA Assay)
sGC is a heme-containing enzyme that converts GTP to secondary messenger cGMP. Increases in cGMP levels affect several physiological processes including vasorelaxation through multiple downstream pathways. […] Heme-dependent activators (HDAs) preferentially activate sGC containing a ferrous heme group. To determine the effect of sGC activators on enzyme activity, the CASA assay was developed to monitor the generation of cGMP in a cell line that stably expresses the heterodimeric sGC protein.
A CHO-K1 cell line stably expressing the sGC α1/β1 heterodimer was generated using a standard transfection protocol. CHO-K1 cells were transfected with plasmids pIREShyghsGCal and pIRESneo-hsGCβ1 simultaneously using FUGENE reagent. Clones that stably express both subunits were selected with hygromycin and neomycin for 2 weeks. Clone #7 was chosen for the assay and was designated CHO-K1/sGC. CHO-K1/sGC cells were maintained in F-K12 medium containing 10% heat-inactivated Fetal Bovine Serum (FBS), 100 μg/mL penicillin/streptomycin, 0.5 mg/mL hygromycin and 0.25 mg/mL G418. The cells were then cryopreserved in LN2. On the day of the assay, cells thawed and resuspended in EBSS Assay Buffer (Sigma, E3024) supplemented with 5 mM MgCl2, 10 mM HEPES (4-(2-hydroxyethyl)piperazine-1-ethanesulfonic acid) and 0.05% BSA (bovine serum albumin) (EAB) and cell density was then adjusted to 4×10^5/mL with EAR IBMX (3-isobutyl-1-methylxanthin, 0.5 mM) was added to inhibit degradation of cGMP. Compounds were diluted from DMSO stock solutions and added to the assay at a final DMSO concentration of 2.5%. Cells were incubated with compounds in the presence and absence of 1 μM of Diethylenetriamine/nitric oxide adduct (DETA-NO; Sigma, 17018) for 1 hr at 37° C. At the end of the incubation period, the reaction was terminated and the cells were lysed with the detection reagents from Cisbio Kits. The level of intracellular cGMP was determined using an HTRF-based assay kit (CisBio, 62GM2PEC), which detects the displacement of a fluorescence labeled cGMP from its specific antibody. The cGMP produced by test compounds was directly compared to the maximum cGMP production (this value was set to equal 100% activation.) of the published sGC-HDA Compound A:
[drawing 597] (Example 1 in WO 2010/065275, published Jun. 10, 2010). The test compounds' activities were then expressed as a percentage of Compound A, the standard in every experiment. This percent activation was calculated either in the presence or absence of DETA-NO which was then plotted. IP and maximum fold induction was derived using ADA analysis software for 4P fit.
The compounds in the Examples of the instant invention had inflection points (IP) less than or equal to 10 μM and more particularly less than or equal to about 1 μM.
For orientation: Time-resolved FRET reads energy transfer from a long-lived donor to a nearby acceptor.

For the compound `Nc1nc(-c2cn3ccnc3c(Cc3ccccc3)n2)nc2c1C(C(=O)NC1CC1)(C1CC1)C(=O)N2` (single isomer, unassigned) [Example 40A, 4-amino-2-(8-benzylimidazo[1,2-a]pyrazin-6-yl)-N,5-dicyclopropyl-6-oxo-6,7-dihydro-5H-pyrrolo[2,3-d]pyrimidine-5-carboxamide], the EC50 came out at 53 nM. The “% Act.” value (percent activation relative to standard Compound A in CHO-K1/sGC cells) is 138%.

Consider `Cc1nc2c(CCC(F)(F)C(F)(F)F)nc(-c3nc(N)c4c(n3)NC(=O)C4(C)c3ccc(F)cc3)cn2c1C` (centres unmarked) [Example 177A, 4-amino-2-(2,3-dimethyl-8-(3,3,4,4,4-pentafluorobutyl)imidazo [1,2-a]pyrazin-6-yl)-5-(4-fluorophenyl)-5-methyl-5H-pyrrolo[2,3-d]pyrimidin-6(7H)-one], for which the Emax was 107% and the EC50 is 129 nM.

On to `Cc1ccc(C2(C)C(=O)Nc3nc(-c4cn5ccnc5c(CCC(F)(F)C(F)(F)F)n4)nc(N)c32)cc1` (centres unmarked) [Example 230B, 4-amino-5-methyl-2-(8-(3,3,4,4,4-pentafluorobutyl)imidazo [1,2-a]pyrazin-6-yl)-5-(p-tolyl)-5H-pyrrolo[2,3-d]pyrimidin-6(7H)-one], for which the Emax turned out to be 117% and the response was half-maximal at 32 nM (EC50).

Regarding `Nc1nc(-c2cn3ccnc3c(CCC(F)(F)C(F)(F)F)n2)nc2c1C(c1ccccn1)(C1CC1)C(=O)N2` (centres unmarked) [Example 382B, 4-Amino-5-cyclopropyl-2-(8-(3,3,4,4,4-pentafluorobutyl)imidazo[1,2-a]pyrazin-6-yl)-5-(pyridin-2-yl)-5H-pyrrolo[2,3-d]pyrimidin-6(7H)-one], the Emax was 149% and the EC50 stood at 453 nM.

On to `CC1(c2ccc(F)cc2)C(=O)Nc2nc(-c3cn4cc(C(F)(F)F)nc4c(Cc4ccccc4F)n3)nc(N)c21` (centres unmarked) [Example 147A, 4-amino-2-(8-(2-fluorobenzyl)-2-(trifluoromethyl)imidazo[1,2-a]pyrazin-6-yl)-5-(4-fluorophenyl)-5-methyl-5H-pyrrolo[2,3-d]pyrimidin-6(7H)-one], for which the Emax was found to be 120% and the EC50 worked out at 12 nM.

For `CC1(c2ccc(F)cn2)C(=O)Nc2nc(-c3cn4ccnc4c(C4CCC4)n3)nc(N)c21` (centres unmarked) [Example 27B, 4-amino-2-(8-cyclobutylimidazo[1,2-a]pyrazin-6-yl)-5-(5-fluoropyridin-2-yl)-5-methyl-5H-pyrrolo[2,3-d]pyrimidin-6(7H)-one], the Emax came out at 85% and the response was half-maximal at 441 nM (EC50).

For `CC1CN(c2nc(-c3cn4ccnc4c(CCC(F)(F)C(F)(F)F)n3)nc3c2C(C)(c2ccc(F)cc2)C(=O)N3)C1` (centres unmarked) [Example 305A, 5-(4-fluorophenyl)-5-methyl-4-(3-methylazetidin-1-yl)-2-(8-(3,3,4,4,4-pentafluorobutyl)imidazo[1,2-a]pyrazin-6-yl)-5H-pyrrolo[2,3-d]pyrimidin-6(7H)-one], the Emax was 158% and the midpoint of the response, the EC50, lay at 147 nM.

With `Cc1ccc(C2(C)C(=O)Nc3nc(-c4cn5ccnc5c(CCC(F)(F)C(F)(F)F)n4)nc(N)c32)nn1` (centres unmarked) [Example 252B, 4-amino-5-methyl-5-(6-methylpyridazin-3-yl)-2-(8-(3,3,4,4,4-pentafluorobutyl)imidazo [1,2-a]pyrazin-6-yl)-5H-pyrrolo[2,3-d]pyrimidin-6(7H)-one], the Emax was determined as 121% and the EC50 was determined as 175 nM.

Consider `CC1(C)C(=O)Nc2nc(-c3cn4ccnc4c(Cc4cccc(C#N)c4)n3)nc(N)c21` [Example 272, 3-((6-(4-Amino-5,5-dimethyl-6-oxo-6,7-dihydro-5H-pyrrolo[2,3-d]pyrimidin-2-yl)imidazo[1,2-a]pyrazin-8-yl)methyl)benzonitrile], for which the Emax turned out to be 114% and the EC50 turned out to be 367 nM.

In the case of `CC1(c2ccccc2)C(=O)Nc2nc(-c3cn4ccnc4c(Cc4ccccc4)n3)nc(N)c21` (centres unmarked) [Example 102B, 4-amino-2-(8-benzylimidazo[1,2-a]pyrazin-6-yl)-5-methyl-5-phenyl-5H-pyrrolo[2,3-d]pyrimidin-6(7H)-one], the Emax was determined as 89% and a half-maximal effect (EC50) was put at 15 nM.

A word on the EC50: it is the concentration giving half of the maximal effect. A lower EC50 goes with greater potency.

Values taken from patent US9796733B2, “Imidazo-pyrazine derivatives useful as soluble guanylate cyclase activators” (Merck Sharp & Dohme Corp., priority 2014, dated 2017).
